Molecules are shown by their SMILES. “Also recorded” adds a separate entry of the source.

These results are taken from patent US12723233B2, “Media and methods for differentiating natural killer cells” (STEMCELL Technologies Canada Inc., priority 2018, dated 2026).

The test system of test [1] is NK cell progenitors. As to the kind of experiment: Differentiation of cord blood CD34+-derived NK cell progenitors to CD56+ NK cells (culture days 14-28), flow cytometry and cell counts. The test is classed as cell-based, Human. As to the method: Human CB samples were obtained from Bloodworks NW (Seattle, WA) and CD34^+ cells were isolated using EasySep™ Human Cord Blood CD34 Positive Selection Kit II (STEMCELL Technologies, Catalogue #17896). Obtained in this way the purity of CD34^+ cells is typically higher than 90%.
The wells of a 24-well plate were coated with StemSpan™ Lymphoid Differentiation Coating Supplement (STEMCELL Technologies, Catalogue #09925) and 5000 CD34^+ cells were plated per well. The CD34^+ cells were cultured for up to 14 days in StemSpan™ SFEM II (STEMCELL Technologies, Catalogue #09605, 09655) supplemented with Lymphoid Progenitor Expansion Supplement (STEMCELL Technologies, Catalogue #09915) with media changes every 3-4 days.
After 14 days in culture, CD34^+ cell-derived NK cell progenitors were harvested. 50,000 NK cell progenitors were plated per well of an uncoated tissue culture 24-well plate. The plated NK cell progenitors were cultured for up to two weeks in NK Cell Differentiation medium (i.e StemSpan™ SFEM II (STEMCELL Technologies, Catalog # 09605, 09655) supplemented with NK Cell Differentiation Supplement (STEMCELL Technologies, Catalogue #09950), and cultured for an additional two weeks with media changes every 3-4 days. UM729 or UM171 was added to supplemented NK Cell Differentiation Medium on days 14-28. On day 28 cells were harvested for analysis or downstream applications.
Harvested cells were stained and measured by flow cytometry for expression of the NK cell lineage marker CD56. Dead cells were excluded by light scatter profile and 7-AAD or DRAQ7 staining. The results in FIGS. 1 and 2 at condition “0” (plotted on the x-axis) indicate the frequency and yield of CD56^+ NK cells that result from experiments that follows the protocol described above but in the absence of UM171 or UM729. Cell counts were obtained using the NucleoCounter NC250. Yield was calculated by dividing the resulting cell number by the number of cells initially seeded. Yields of specific cell types were obtained by multiplying total yield by cell frequency.
Cells were cultured as described in Example 1, with the exception that the up to two week culture of NK cell progenitors (i.e. culture days 14-28) in NK Cell Differentiation medium occurred in the presence or absence of UM171 or UM729.
The effects of UM171 and UM729 were tested across a range of concentrations: 0 nM, 50 nM, 100 nM, 150 nM and 200 nM for UM171; and 0 μM, 0.25 μM, 0.5 μM, 1 μM, and 2 μM for UM729.
CD34^+ CB cells were isolated and cultured as described in Example 1 up to the day 14 time point. Day 14 NK cell progenitors were further cultured in NK Cell Differentiation medium, essentially as described in Example 1, except in the absence of an added pyrimidoindole compound but in the presence or absence of 5 μM CH223191.
For orientation: A flow cytometer gives signals particle by particle.

Test [2] deals with differentiated CD56+ NK cells. As to the kind of experiment: Flow cytometry of NK cell, maturity and T cell markers on differentiated CD56+ NK cells at day 28. Conditions: 100 nM UM171, day 28. The test is classed as cell-based, Human. As to the method:
CD56^+ NK cells were differentiated as described in Examples 1 and 2 in the presence of 1 μM UM729 and analyzed on day 28 by flow cytometry for the expression of known NK cell markers. Cells were stained with fluorescence-conjugated antibodies against indicated NK cell markers for 15 min at 4° C. Non-specific binding was blocked using FcR blocker and 5% human or rat serum. Dead cells were excluded by light scatter profile and 7-AAD or DRAQ7 staining. Prepared samples were analyzed by flow cytometry.
CD56^+ NK cells were differentiated as described in Examples 1 and 2 in the presence of 1 μM UM729 and analyzed on day 28 by flow cytometry for the expression of known NK cell markers. The cells were stained for the markers described in this Example essentially as described in Example 3. Staining for KIR molecules was performed using a combination of two clones for the antibody, 180704 and HP-MA4, as each recognizes a distinct subset of KIR molecules. Dead cells were excluded by light scatter profile and 7-AAD or DRAQ7 staining.
Production of IFNγ by the differentiated CD56^+ NK cells was also measured. For IFNγ intracellular staining, differentiated CD56^+ NK Cells were stimulated with PMA/Ionomycin for 2 hours. Brefeldin A was added and the cells were incubated for another 2 hours. The cells were harvested and stained for CD56 and Zombie NIR viability dye then fixed, permeabilized and stained for intracellular IFNγ.
CD56^+ NK cells were differentiated as described in Examples 1 and 2 in the presence of pyrimidoindole compounds and analyzed on day 28 by flow cytometry for the expression of a T cell marker. The analyzed cells were stained for CD3 essentially as described in Example 3. Dead cells were excluded by light scatter profile and 7-AAD or DRAQ7 staining.

The test system of test [3] is Cord blood-derived CD34+ HSPC cells. As to the kind of experiment: UM171 added at different times of the day 0-28 NK differentiation culture, CD56 expression at day 28. The test is classed as cell-based, Human. Conditions: analyzed at day 28. As to the method:
(§1) […] CB cells were isolated and cultured as described in Example 1. As in Example 1 and 2 the different media were used in the day 0-14 and the day 14-28 cultures, except the day 0-14 culture medium was further supplemented with 100 nM UM171 to investigate its effect on the differentiation of CD4^+ HSPC to NK cells.
(§2) In these experiments UM171 was added to the cultures at different time points: days 0-14 (+/−); days 14-28 (−/+); or days 0-28 (+/+). Cultures without UM171 were also set up (−/−). Cells were either analyzed at day 28 for CD56 expression (FIG. 8) or at day 14 for CD7 and CD5 expression (FIG. 9).

For test [4], the system named is CD34+ HSPC. The test can be described thus: Differentiation of CD34+ HSPC into CD7+CD5+ NK cell progenitors (days 0-14), CD7 and CD5 expression at day 14. The test is classed as cell-based, Human. The settings on record: day 0-14 culture medium supplemented with 100 nM UM171, day 14. As to the method:
as §1, §2

For test [5] the following is noted: reported; cited from earlier work.
[6] abbreviates: 5 μM CH223191, no added pyrimidoindole compound, day 14 NK cell progenitors.
Where [7] appears, read: 100 nM UM171, normalized to STD cultures, n=15.
The mark [8] stands for this setting: tested 0, 50, 100, 150, 200 nM, days 14-28.
The mark [9] stands for this setting: 100 nM UM171 between days 0-14 (+/−).
Setting [10] is: 100 nM UM171 between days 14-28 (−/+).

`Cc1ccccc1N=Nc1ccc(NC(=O)c2ccnn2C)c(C)c1` [CH223191]: in test [1] (setting [6]), the “CD56+ NK cell frequency compared to absence of CH223191” value is “decreased” and the “CD56+ NK cell yield compared to absence of CH223191” value was “decreased”.

Turning to `Cn1nnc(-c2ccc3c(c2)[nH]c2nc(Cc4ccccc4)nc(N[C@H]4CC[C@H](N)CC4)c23)n1` [UM171, (1r,4r)-N^1-(2-benzyl-7-(2-methyl-2H-tetrazol-5-yl)-9H-pyrimido[4,5-13]indol-4-yl)cyclohexane-1,4-diamine], the “Frequency of CD56+ NK cells compared to cultures lacking UM171” value in test [1] (100 nM UM171, 14 days culture of NK cell progenitors, paired t-test p=0.013) is “increased significantly”. In test [1] (setting [7]), the “Increase of average frequency of NK cells compared to culture conditions not including a pyrimidoindole compound” value is reported as ~ 30% and the “Increase of average yield of NK cells compared to culture conditions not including a pyrimidoindole compound” value is reported as 2 fold. In test [1] (setting [8]), the “Concentration at which frequency of CD56+ NK cells appeared to be highest” value stood at 100 nM and the “Concentration at which yield of CD56+ NK cells appeared to be highest” value came to 100 nM. Besides, the “Expression of CD3 among differentiated cells” value in test [2] (cord blood sample of a first donor) was “virtually absent; also recorded: do not express CD3”. Moreover, the “Expression of CD3 among differentiated cells” value in test [2] (cord blood sample of a second donor) is on record as “virtually absent; also recorded: do not express CD3”. For the same compound, in test [3] (setting [9]), the “CD56+ cell frequency compared to cultures lacking UM171 on days 0-14 (−/−)” value is reported as “lower” and the “CD56+ cell yield compared to cultures lacking UM171 on days 0-14 (−/−)” value was “lower”. Besides, in test [3] (setting [10]), the “NK cell frequency compared to cultures lacking UM171 (−/−)” value is recorded as “increase” and the “NK cell yield compared to cultures lacking UM171 (−/−)” value is “increase”. In addition, in test [3] (100 nM UM171 days 0-28 (+/+)), the “Effect of inclusion of UM171 during days 14-28 on CD56+ NK cell frequency and yield in the (+/+) condition” value is listed as “can compensate for the effects of this compound on day 0-14 cultures”. Also, in test [4], the “Frequency of CD7+CD5+ NK cell progenitors compared to cultures not supplemented with UM171” value is reported as “clear reduction” and the “Yield of CD7+CD5+ NK cell progenitors compared to cultures not supplemented with UM171” value is “clear reduction”. In test [5], the “Potency relative to UM729” value is on record as “approximately 10 ×”.
